Where two headings read alike, the source gives them in different places.
Assays:
Format in all cases: in vivo
[1] = test system: Triticum aestivum (TRZAS); conditions: crop plant compatibility, effect vs untreated controls
Method in brief: (§1)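 Test crops were treated 2 to 3 weeks after sowing, once they reached one leaf, by spraying compound in water with 0.5% additive at 600 l/ha. Visual scoring compared them with untreated controls roughly 3 weeks on, and appendices a, b and c denote different doses.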

Zea mays (ZEAMX) [2] = conditions: for Post-emergence action against ZEAMX in %: crop plant compatibility, effect vs untreated controls; for Post-emergence action against ZEAMX in % (crop plant compatibility): 20 g/ha, effect in comparison to untreated controls
Method in brief: as §1

Oryza sativa (ORYSA) [3] = conditions: crop plant compatibility
Method in brief: as §1

Glycine max (GLXMA) [4] = assay: Post-emergence crop plant compatibility, GLXMA; conditions: for Post-emergence action against GLXMA in %: effect in comparison to untreated controls
Method in brief: as §1

Viola tricolor (VIOTR) = assay: Pre-emergence herbicidal action against VIOTR; conditions: 320 g/ha, Viola tricolor
Method in brief: (§2)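 Read-out is visual percent damage relative to untreated pots, with 100% meaning dead plants and 0% meaning no difference, assessed roughly three weeks after treatment. Compounds were applied pre-emergence to the covering soil at up to 320 g/ha.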

Brassica napus (BRSNW) [5] = conditions: crop plant compatibility, in comparison to untreated controls
Method in brief: (§3)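 Scoring: visual, % of untreated control, about 3 weeks after a pre-emergence application to the soil surface. Application used WP or EC formulations diluted in water with 0.5% additive at 600 l/ha; dosage levels are marked by suffixes a, b and c.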

[6] = test system: Triticum aestivum (TRZAS); conditions: pre-emergence, crop plant compatibility, in comparison to untreated controls
Method in brief: as §3

Zea mays (ZEAMX) [7] = conditions: pre-emergence, crop plant compatibility, in comparison to untreated controls
Method in brief: as §3

Oryza sativa (ORYSA) [8] = conditions: pre-emergence, crop plant compatibility, in comparison to untreated controls
Method in brief: as §3

Glycine max (GLXMA) [9] = conditions: pre-emergence, crop plant compatibility, in comparison to untreated controls
Method in brief: as §3

Brassica napus (BRSNW) [10] = assay: Post-emergence crop plant compatibility, BRSNW; conditions: effect in comparison to untreated controls
Description: Seeds of monocotyledonous and dicotyledonous weeds and crop plants are placed in sandy loam in plastic or organic planting pots, covered with soil and cultivated in a greenhouse under controlled growth conditions. 2 to 3 weeks after sowing, the test plants are treated at the one-leaf stage. The compounds of the invention, formulated in the form of wettable powders (WP) or as emulsion concentrates (EC), are then sprayed onto the green parts of the plants as aqueous suspension or emulsion with addition of 0.5% additive at a water application rate of 600 l/ha (converted). After the test plants have been kept in the greenhouse under optimum growth conditions for about 3 weeks, the activity of the preparations is rated visually in comparison to untreated controls. For example, 100% activity=the plants have died, 0% activity=like control plants.
The observed effects on selected crop plants are reported here in comparison to the untreated controls (values in %). The appendices “a”, “b” and “c” give differentiation by dosage used with otherwise the same crop plants tested.

[11] = test system: Verconica persica (VERPE); assay: Pre-emergence herbicidal action against VERPE; conditions: dosage 320 g/ha
Method in brief: as §2

[12] = 80 g/ha, effect in comparison to untreated controls
[13] = 20 g/ha, effect vs untreated controls

Structure (SMILES)	Post-emergence action against TRZAS in % ([1]; 80 g/ha) [%]	Post-emergence action against ZEAMX in % (Zea mays (ZEAMX) [2]; 80 g/ha) [%]	Post-emergence action against ORYSA in % (Oryza sativa (ORYSA) [3]; [12]) [%]	Post-emergence action against GLXMA in % (Glycine max (GLXMA) [4]; 80 g/ha) [%]	Pre-emergence action against BRSNW in % (Brassica napus (BRSNW) [5]; 80 g/ha) [%]	Pre-emergence action against BRSNW in % (Brassica napus (BRSNW) [5]; 320 g/ha) [%]	Pre-emergence action against TRZAS in % ([6]; 80 g/ha) [%]	Pre-emergence action against TRZAS in % ([6]; 320 g/ha) [%]	Pre-emergence action against ZEAMX in % (Zea mays (ZEAMX) [7]; 80 g/ha) [%]	Pre-emergence action against ZEAMX in % (Zea mays (ZEAMX) [7]; 320 g/ha) [%]	Pre-emergence action against ORYSA in % (Oryza sativa (ORYSA) [8]; 80 g/ha) [%]	Pre-emergence action against ORYSA in % (Oryza sativa (ORYSA) [8]; 320 g/ha) [%]	Pre-emergence action against GLXMA in % (Glycine max (GLXMA) [9]; 80 g/ha) [%]	Pre-emergence action against GLXMA in % (Glycine max (GLXMA) [9]; 320 g/ha) [%]	Post-emergence action against BRSNW in % (Brassica napus (BRSNW) [10]; 80 g/ha) [%]	Post-emergence action against TRZAS in % ([1]; 20 g/ha) [%]	Post-emergence action against ZEAMX in % (crop plant compatibility) (Zea mays (ZEAMX) [2]) [%]	Post-emergence action against ORYSA in % (Oryza sativa (ORYSA) [3]; [13]) [%]	Post-emergence action against GLXMA in % (Glycine max (GLXMA) [4]; 20 g/ha) [%]	Post-emergence action against BRSNW in % (Brassica napus (BRSNW) [10]; 20 g/ha) [%]	other results
O=C(CSc1nn(-c2ccccn2)c(-c2cncc(F)c2)c1Br)NS(=O)(=O)c1ccccc1 [Example I-200]	0	0	0	0	0	0	0	10	0	0	20	20	20	20	10						Post-emergence action against TRZAS in % ([1]; 320 g/ha): 0%; Post-emergence action against ZEAMX in % (Zea mays (ZEAMX) [2]; 320 g/ha): 0%; Post-emergence action against ORYSA in % (Oryza sativa (ORYSA) [3]; 320 g/ha, effect in comparison to untreated controls): 0%; Post-emergence action against GLXMA (Glycine max (GLXMA) [4]; 320 g/ha, effect vs untreated controls): 0%; Pre-emergence action against VIOTR in % (Viola tricolor (VIOTR)): 100%; Post-emergence action against BRSNW in % (Brassica napus (BRSNW) [10]; 320 g/ha): 20%
COC(=O)CN(C)C(=O)COc1nn(-c2ccnc(Cl)c2)c(-c2ccc(F)nc2)c1Br [III-21]	0	0	20	0	20	20	20		0	20	0	0	0	0	0	0	0	0	0	0	
CCOC(=O)C1CCN(C(=O)COc2nn(-c3ccccn3)c(-c3ccc(F)nc3)c2Br)CC1 [Example I-112]	0	10	0	10	10	10	0	10	0	10	0	10		20	10	0	0	0	0	0	Pre-emergence action against VERPE in % [11]: 80%
O=C(COc1nn(-c2ccnc(Cl)c2)c(-c2ccc(F)nc2)c1Br)NS(=O)(=O)CC(F)(F)F [III-20]	0		0	0	0		0	0	0	0	0	10		20		0	0	0	0	0	
